According to ChEMBL document CHEMBL5465560, “Selectivity Literature for EUbOPEN Chemogenomic Library” (2024):

Tests used:
D(2) dopamine receptor = D(2) dopamine receptor (Homo sapiens, UniProt P14416); experiment: Selectivity interaction (GPCR panel (PDSP screen)) EUB0001079a DRD2; conditions: at 10 µM
[1] = target: T1, Protein kinase C iota type (Homo sapiens) (UniProt P41743); experiment: Selectivity interaction (Kinase panel (KiNativ target engagement assay in Jurkat cells)) EUB0001635a PRKCI; format: cell-based; conditions: Selectivity number of off-targets 0.0, Selectivity number of targets 233.0, Source Knowledge https://www.sciencedirect.com/science/article/pii/S2451945619300674?via%3Dihub, at 1 µM
T1 sequence (whole entry): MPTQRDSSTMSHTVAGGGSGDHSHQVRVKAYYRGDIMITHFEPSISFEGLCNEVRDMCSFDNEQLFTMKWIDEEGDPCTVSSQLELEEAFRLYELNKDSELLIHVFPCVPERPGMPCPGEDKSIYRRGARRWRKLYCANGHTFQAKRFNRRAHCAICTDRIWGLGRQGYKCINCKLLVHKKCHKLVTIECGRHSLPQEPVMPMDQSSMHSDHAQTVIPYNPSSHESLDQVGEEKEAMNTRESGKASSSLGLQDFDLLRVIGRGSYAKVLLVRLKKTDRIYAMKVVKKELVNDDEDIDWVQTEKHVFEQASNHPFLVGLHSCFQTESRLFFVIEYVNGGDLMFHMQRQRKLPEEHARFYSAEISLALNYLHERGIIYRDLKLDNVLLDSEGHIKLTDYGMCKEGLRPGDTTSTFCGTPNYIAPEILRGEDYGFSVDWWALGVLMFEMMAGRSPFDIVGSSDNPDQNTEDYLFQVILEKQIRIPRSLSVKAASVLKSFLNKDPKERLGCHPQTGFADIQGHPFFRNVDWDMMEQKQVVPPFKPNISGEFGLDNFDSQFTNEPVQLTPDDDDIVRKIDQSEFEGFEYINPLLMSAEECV

[2] = target: Rho-associated protein kinase 1 (Homo sapiens) (UniProt Q13464); experiment: Selectivity interaction (KinomeScan (DiscoverX)) EUB0000045b ROCK1
[3] = target: T2, Serine/threonine-protein kinase D2 (Homo sapiens) (UniProt Q9BZL6); experiment: Selectivity interaction (KinomeScan (DiscoverX)) EUB0000618a PRKD2; conditions: at 10 µM
T2 sequence (whole entry): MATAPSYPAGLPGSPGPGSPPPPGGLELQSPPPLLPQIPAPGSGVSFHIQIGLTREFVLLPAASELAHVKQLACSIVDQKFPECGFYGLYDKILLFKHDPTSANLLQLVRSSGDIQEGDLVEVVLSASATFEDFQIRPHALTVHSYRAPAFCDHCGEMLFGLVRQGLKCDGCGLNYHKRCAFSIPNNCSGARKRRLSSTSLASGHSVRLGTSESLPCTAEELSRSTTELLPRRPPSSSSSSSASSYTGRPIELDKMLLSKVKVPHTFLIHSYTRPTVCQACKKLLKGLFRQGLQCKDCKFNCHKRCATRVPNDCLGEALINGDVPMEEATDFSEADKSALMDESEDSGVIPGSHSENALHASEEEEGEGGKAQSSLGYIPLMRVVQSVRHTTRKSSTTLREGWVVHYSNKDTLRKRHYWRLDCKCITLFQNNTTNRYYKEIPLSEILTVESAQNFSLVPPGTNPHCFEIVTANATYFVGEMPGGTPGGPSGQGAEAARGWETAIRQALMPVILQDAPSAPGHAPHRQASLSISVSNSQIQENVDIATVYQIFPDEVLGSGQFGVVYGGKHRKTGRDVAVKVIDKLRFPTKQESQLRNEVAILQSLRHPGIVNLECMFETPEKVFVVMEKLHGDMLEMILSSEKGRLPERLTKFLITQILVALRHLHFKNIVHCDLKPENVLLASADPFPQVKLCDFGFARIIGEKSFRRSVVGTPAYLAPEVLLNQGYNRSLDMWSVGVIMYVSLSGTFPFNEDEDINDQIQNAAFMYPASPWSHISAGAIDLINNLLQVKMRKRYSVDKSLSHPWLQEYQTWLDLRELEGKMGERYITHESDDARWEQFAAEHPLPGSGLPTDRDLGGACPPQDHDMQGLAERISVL

[4] = target: T3, Serine/threonine-protein kinase 36 (Homo sapiens) (UniProt Q9NRP7); experiment: Selectivity interaction (KinomeScan (DiscoverX)) EUB0000618a STK36; conditions: at 10 µM
T3 sequence (whole entry): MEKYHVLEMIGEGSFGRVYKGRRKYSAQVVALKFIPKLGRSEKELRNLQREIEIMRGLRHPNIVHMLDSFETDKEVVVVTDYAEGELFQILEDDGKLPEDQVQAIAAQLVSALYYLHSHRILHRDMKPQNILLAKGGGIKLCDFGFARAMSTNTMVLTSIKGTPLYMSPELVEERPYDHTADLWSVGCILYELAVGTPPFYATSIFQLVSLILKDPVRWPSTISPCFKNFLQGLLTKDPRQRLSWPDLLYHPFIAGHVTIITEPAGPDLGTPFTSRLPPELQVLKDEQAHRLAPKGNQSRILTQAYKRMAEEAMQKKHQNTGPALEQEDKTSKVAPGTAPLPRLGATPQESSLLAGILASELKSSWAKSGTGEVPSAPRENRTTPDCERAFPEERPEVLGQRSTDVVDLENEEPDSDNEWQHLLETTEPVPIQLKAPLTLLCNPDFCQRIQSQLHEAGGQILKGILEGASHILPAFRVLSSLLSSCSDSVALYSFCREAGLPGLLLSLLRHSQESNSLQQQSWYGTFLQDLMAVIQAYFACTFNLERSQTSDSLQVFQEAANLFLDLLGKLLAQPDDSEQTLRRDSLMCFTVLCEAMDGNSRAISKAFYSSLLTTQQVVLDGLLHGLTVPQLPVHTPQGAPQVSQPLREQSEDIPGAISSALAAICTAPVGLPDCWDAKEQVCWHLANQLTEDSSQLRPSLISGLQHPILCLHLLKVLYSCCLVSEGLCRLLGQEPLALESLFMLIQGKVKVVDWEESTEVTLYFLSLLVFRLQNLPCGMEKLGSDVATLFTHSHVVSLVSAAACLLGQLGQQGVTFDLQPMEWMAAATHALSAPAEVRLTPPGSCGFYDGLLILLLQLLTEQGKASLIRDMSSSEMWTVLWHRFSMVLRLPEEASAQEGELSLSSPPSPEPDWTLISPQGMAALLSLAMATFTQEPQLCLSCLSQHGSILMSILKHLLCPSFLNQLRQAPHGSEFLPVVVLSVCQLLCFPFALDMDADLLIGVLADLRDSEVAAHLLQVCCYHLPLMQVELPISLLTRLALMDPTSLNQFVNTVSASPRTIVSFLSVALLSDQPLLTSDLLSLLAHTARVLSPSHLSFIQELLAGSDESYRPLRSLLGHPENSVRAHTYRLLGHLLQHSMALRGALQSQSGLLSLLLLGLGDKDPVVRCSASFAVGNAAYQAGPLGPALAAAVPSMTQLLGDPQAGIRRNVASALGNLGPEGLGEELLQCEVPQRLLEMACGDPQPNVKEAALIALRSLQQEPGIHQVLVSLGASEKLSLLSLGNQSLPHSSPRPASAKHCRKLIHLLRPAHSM

Chain of Rho-associated protein kinase 1 (Homo sapiens) (Q13464 2-1354 limits assumed): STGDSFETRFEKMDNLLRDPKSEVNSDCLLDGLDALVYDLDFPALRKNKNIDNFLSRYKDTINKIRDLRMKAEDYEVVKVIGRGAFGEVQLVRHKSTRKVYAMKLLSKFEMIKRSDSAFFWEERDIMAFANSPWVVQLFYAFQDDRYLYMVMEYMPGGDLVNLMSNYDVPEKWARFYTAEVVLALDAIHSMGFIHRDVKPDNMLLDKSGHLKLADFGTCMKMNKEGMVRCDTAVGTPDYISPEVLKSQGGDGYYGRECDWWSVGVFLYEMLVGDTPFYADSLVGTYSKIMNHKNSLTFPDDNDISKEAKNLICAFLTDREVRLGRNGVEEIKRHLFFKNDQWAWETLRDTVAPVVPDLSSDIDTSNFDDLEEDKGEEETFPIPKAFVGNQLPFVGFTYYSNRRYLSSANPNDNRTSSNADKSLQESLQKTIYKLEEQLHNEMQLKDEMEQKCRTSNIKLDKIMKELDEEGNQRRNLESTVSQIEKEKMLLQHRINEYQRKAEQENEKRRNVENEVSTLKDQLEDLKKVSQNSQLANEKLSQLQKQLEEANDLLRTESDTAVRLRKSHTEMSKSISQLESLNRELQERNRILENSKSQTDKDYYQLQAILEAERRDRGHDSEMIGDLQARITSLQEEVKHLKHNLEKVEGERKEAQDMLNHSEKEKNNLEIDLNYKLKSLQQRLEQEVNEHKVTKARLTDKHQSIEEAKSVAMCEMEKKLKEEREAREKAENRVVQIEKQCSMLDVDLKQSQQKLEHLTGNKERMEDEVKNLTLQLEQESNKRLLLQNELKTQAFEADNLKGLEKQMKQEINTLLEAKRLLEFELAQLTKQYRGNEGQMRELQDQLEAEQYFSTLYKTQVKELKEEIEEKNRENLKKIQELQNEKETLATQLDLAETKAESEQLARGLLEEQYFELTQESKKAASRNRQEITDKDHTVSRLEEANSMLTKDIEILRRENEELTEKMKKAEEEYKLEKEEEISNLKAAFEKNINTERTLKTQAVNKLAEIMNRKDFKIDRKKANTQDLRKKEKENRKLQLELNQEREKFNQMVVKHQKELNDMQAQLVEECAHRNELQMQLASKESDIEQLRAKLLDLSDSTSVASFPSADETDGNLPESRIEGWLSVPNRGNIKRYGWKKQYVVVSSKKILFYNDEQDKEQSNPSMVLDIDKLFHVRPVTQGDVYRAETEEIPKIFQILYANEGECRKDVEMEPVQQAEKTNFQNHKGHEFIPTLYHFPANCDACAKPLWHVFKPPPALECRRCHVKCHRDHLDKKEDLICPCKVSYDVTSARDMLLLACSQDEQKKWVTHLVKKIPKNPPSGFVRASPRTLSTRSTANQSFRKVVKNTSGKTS
Chain of D(2) dopamine receptor (P14416 whole entry): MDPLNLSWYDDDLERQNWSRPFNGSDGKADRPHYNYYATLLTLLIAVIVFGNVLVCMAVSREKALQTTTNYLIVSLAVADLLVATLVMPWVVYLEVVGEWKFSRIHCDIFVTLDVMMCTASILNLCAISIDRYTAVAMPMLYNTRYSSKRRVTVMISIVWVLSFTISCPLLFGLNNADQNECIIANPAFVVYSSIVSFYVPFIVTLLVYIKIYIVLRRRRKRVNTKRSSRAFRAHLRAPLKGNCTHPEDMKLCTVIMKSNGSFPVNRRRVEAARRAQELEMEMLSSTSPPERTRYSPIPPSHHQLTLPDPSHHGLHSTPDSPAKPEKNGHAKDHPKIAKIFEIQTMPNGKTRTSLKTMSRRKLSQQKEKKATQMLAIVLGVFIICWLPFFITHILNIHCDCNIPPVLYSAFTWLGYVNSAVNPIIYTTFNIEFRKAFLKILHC

In the case of `Nc1cnc(N2CCc3cc(S(=O)(=O)Nc4c(F)cc(Cl)cc4F)cc(N4CCCC4=O)c32)nc1` [TP-020n], the % of inhibition (D(2) dopamine receptor) is reported as -0.42%.
With `C=CC(=O)Nc1ccc(C(=O)Nc2[nH]nc3c2CN(C(=O)N[C@H](CN(C)C)c2ccccc2)C3(C)C)cc1` the % of engagement [1] was 9.5%.
`C=CC(=O)Nc1cc(-n2c(=O)ccc3cnc4ccc(-c5ccc(NS(C)(=O)=O)cc5)cc4c32)ccc1C` showed a % of control ([2]; at 1 µM) of 56% and a % of control ([2]; at 10 µM) of 59%.
`O[C@H]1CC[C@H](Nc2ncc3nc(Nc4c(F)cc(F)cc4F)n([C@H]4CCOC4)c3n2)CC1` gave a % of control [3] of 77% and a % of control [4] of 6.5%.
